{"source": "paper PMC9599717", "about": "“The Multicellular Effects of VDAC1 N-Terminal-Derived Peptide” (Biomolecules, 2022)", "test_system": "U-87MG cells", "experiment": "Cell migration / wound-healing assay", "assay_type": "cell-based, human", "details": "20 μM peptide, 24 h, untreated cells 64%", "description": "color was read in a spectrophotometer at 680 nm. A standard curve was obtained using D-glucose (0–20 µg) subjected to anthrone in a sulfuric acid treatment, as described above.\nLysosomal vacuolation observed with acridine orange (AO) staining\nU-87MG cells were treated with D-Δ(1-18)N-Ter-Antp peptide in serum-free DMEM media for 6 h at 37℃, incubated with acridine orange (1 μg/ml) for 15 min, visualized by fluorescence microscopy (Olympus LX2 - KSP, Tokyo, Japan), and images were captured with a CCD camera. About 200 cells were counted for each […]\nCell migration assay/wound-healing assay\nU-87MG cells were seeded in 12-well plates and cultured. When reaching around 90% confluence, a straight scratch was mechanically made with a sterile 10-µl pipette tip. The cells were treated with various concentrations of D-Δ(1-18)N-Ter-Antp peptide in serum-free DMEM media for the indicated time points. The images of the wounds were captured at different time points using a digital camera mounted on a microscope to follow the position of the migrating front at defined times. […]\nSummary of the peptide concentrations (µM) required for half-maximal cell death activity (IC50) in various cancer cell lines. […] Cell death was determined by PI staining and FACS analysis. […]"}
{"substance": "19-FTKGYGFGL-26- RQIKIWFQNRRMKWKK [D-Δ(1-18)N-Ter-Antp]", "values": [{"measurement": "Gap closed in wound-healing assay", "result": 17, "unit": "%"}]}
